US12257253B2, “Triamterene or nolatrexed for use in the treatment of phenylketonuria” (SOM INNOVATION BIOTECH, S.A., priority 2019, dated 2025)
Where a name gives a salt, the structure may show the parent alone. Read-outs that look alike come from different tables or passages of the source.

Columns and labels:
[1] = target: T1, Arg261Gln (R261Q) PAH (Homo sapiens (Human), UniProt P00439, R261Q); assay: Thermal stability shift assay (DSF); assay type: binding; conditions: compound 30 μM (BH4 43 μM); for ΔTm1 R261Q PAH: shift of transition midpoint 1 vs NCC; for ΔTm2 R261Q PAH: shift of transition midpoint 2 vs NCC
T1 sequence (P00439 whole entry R261Q): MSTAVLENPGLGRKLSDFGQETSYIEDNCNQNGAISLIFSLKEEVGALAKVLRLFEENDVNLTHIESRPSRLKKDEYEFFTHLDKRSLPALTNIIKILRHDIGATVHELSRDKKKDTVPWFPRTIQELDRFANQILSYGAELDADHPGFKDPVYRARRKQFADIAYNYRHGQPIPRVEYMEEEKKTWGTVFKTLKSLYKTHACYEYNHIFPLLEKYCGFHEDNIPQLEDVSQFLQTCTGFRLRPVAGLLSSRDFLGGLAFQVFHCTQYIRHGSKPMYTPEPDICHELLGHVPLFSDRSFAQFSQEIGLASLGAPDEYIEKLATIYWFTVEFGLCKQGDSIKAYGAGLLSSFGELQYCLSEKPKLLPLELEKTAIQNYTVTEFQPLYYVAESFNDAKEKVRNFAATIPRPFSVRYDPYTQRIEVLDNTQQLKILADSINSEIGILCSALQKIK
Text: (§1) 1. Thermal Stability Shift Assay
(§2) Thórólfsson et al. (Biochemistry, 2002, 41(24), 7573-7585) describe that the thermal denaturation of hPAH occurs in three stages: (i) unfolding of the four regulatory domains, which is responsible for the low-temperature calorimetric transition (ii) unfolding of two (out of the four) catalytic domains, which is responsible for the high-temperature transition; and (iii) irreversible protein denaturation. The most important domain for stabilization is the regulatory domain.
(§3) Thus, to test the compound effect on thermal stability of the target protein a thermal stability shift assay (also called differential scanning fluorimetry (DSF)) was performed [Niesen F. H. et al., Nat Protoc., 2007, 2(9), 2212-2221; Gersting S. W. et al., Human Molecular Genetics, 2010, 19(10), 2039-2049; and Gersting S. W. et al., J. Biol Chem. 2010, 285(40), 30686-30697]. DSF monitors thermal unfolding of proteins in the presence of a fluorescent dye (SYPRO Orange; λexc=465 nm, λem=610 nm) and was performed using a real-time PCR instrument (Applied BioSystems 7000HT Fast Real-Time PCR System). Compounds that increase the midpoints of thermal denaturation (Tm) are considered to bind and stabilize the protein.
(§4) In brief, purified wild-type or Arg261Gln (which is the most frequent mutation responsive to BH4) PAH proteins (diluted in 20 mM NaHEPES, pH 7.0 and 200 mM NaCl, 2 mM DTT to 2 mg/ml) were used at a final concentration of 0.2 mg/ml protein per sample. The compounds were tested at a final concentration of 30 μM. A no compound control (NCC) was used according to the compound solvent at a final concentration of 2% (H2O, DMSO, ethanol, methanol). As a positive control we used the natural cofactor 6R-L-erythro-5,6,7,8-tetrahydrobiopterin (BH4, CAS 69056-38-8) stabilized in 100 mM dithiothreitol (DTT), in a final concentration of 43 μM. To exclude unspecific effects of the compound to the dye, a no protein control (NPC) was added (buffer, compound, dye). The measurement was performed in duplicates and samples were denatured by scanning a temperature range of 20 to 75° C. at a scan rate of 0.5° C./min.
(§5) The data was normalized and the respective Tm values were calculated by bi-phasic equation to determine temperatures at which half denaturation occurred (Software GraphPadPrism). To identify compound specific effects on the thermal stability of the target protein, the reference Tm (NCC) was used to calculate the temperature shift between compound treated and not treated protein (Tm−TmNCC), from duplicates, to provide transition midpoints shifts (ΔTm1 and ΔTm2). Tm1 and Tm2 are the two different transition mid point of the unfolding process of the protein as the tetrameric protein PAH unfolds in two steps due to its domains. A shift in Tm1 of 2° C. reflects a relevant increase in thermal stability on the regulatory domain and, thus, is considered a positive result.

[2] = target: T2, wild-type PAH (Homo sapiens (Human), UniProt P00439); assay: Thermal stability shift assay (DSF); assay type: binding; conditions: compound 30 μM (BH4 43 μM); for ΔTm1 WT PAH: shift of transition midpoint 1 vs NCC; for ΔTm2 WT PAH: shift of transition midpoint 2 vs NCC
T2 sequence (P00439 whole entry): as the sequence (P00439 whole entry R261Q) above, with Q261R counted along it
Text: as §1, §2, §3, §4, §5

[3] = target: T2, wild-type PAH; assay: Isothermal titration calorimetry; assay type: binding; conditions: ITC; for Kd / N (stoichiometry) / ΔG / ΔH / −TΔS: 25° C., WT PAH
Text: 4. Isothermal Titration Calorimetry
Isothermal titration calorimetry (ITC) is a quantitative physical technique used to determine binding affinities of small molecules to proteins or other larger molecules [Freyer M. W. and Lewis E. A., Methods in Cell Biology, 2008, vol. 4, Chapter 4, pages 79-113]. The measurement detects changes of heat generated or absorbed when molecules interact, generate binding kinetics and thermodynamic profile of the molecular interaction. The following parameters are determined: KD (equilibrium dissociation constant), N (stoichiometry of the interaction (mol ligand/mol complex)), ΔH (enthalpy change), ΔG (Gibbs energy), T (temperature) and ΔS (entropy change).
ITC experiments were performed at 25° C. using a MicroCal PEAQ-ITC microcalorimeter (Malvern). PAH proteins were prepared in a HEPES buffer (HEPES 20 mM Hepes, 0.2M NaCl, 1 mM DTT, pH 7.0) containing 5% DMSO, in order to match the final DMSO concentration of the compounds dilutions. The protein concentration used (30 μM) was determined using ultraviolet (UV) absorbance at 280 nm. The compounds ([…]) were prepared using the exact same buffer. Twelve injections of 3 μL of compound/ligand were titrated into the sample cell (containing the protein) over 31 min with a stirring speed of 750 rpm. Data was baseline adjusted by subtracting the background obtained from equivalent injections of compound into the buffer solution. The titration curves were analyzed using MicroCal PEAQ-ITC analytics software (version 1.1.0.1262, Malvern Instruments Ltd.) using a model that assumes a set of identical binding sites where the total heat of the solution is calculated as:
[formula] where n is the number of binding sites, Mt is the total protein concentration in the cell, ΔH is the molar heat of ligand binding, Xt is the total concentration of ligand, and K the binding constant (K=1/KD). The heat released per injection (i), ΔQ(i), is calculated following the equation below, which compensates for the volume that is added in each injection (ΔVi). V0 is the initial volume in the cell.
The parameters, n, K, and ΔH are determined using non-linear square fitting using the Levenberg-Marquardt algorithm.

[4] = target: T1, Arg261Gln (R261Q) PAH; assay: Phenylalanine hydroxylase residual protein amount (dot blot, COS-7 lysates); assay type: cell-based; conditions: COS-7 cells, compound 10 μM (sepiapterin 5 μM), read-out: PAH protein level (immune blot signal) R261Q PAH Mean
Method: (§6) 3. Phenylalanine Hydroxylase Residual Protein Amount
(§7) The analysis of the residual PAH protein amount was based on the method described in Gersting S. W. et al., Human Molecular Genetics, 2010, 19(10), 2039-2049 with modifications.
(§8) Detection of the residual PAH protein amount was performed as a dot blot using the lysates obtained from the cell culture where transiently transfected COS-7 cells (with wild-type PAH or PAH variant) were exposed for 48 h to compounds. The experiment was carried out from the same samples as used for measuring enzyme activities.
(§9) 2 μl of the lysate were dropped onto the nitrocellulose membrane. The membrane was allowed to air dry at room temperature for 30 min followed by 40 min blocking in 5% milk in TBS-Tween (room temperature). The membrane was incubated with the mouse monoclonal primary antibody specific for PAH (Millipore, Cat. No. MAB5278, 1:1000 dilution in 5% milk in TBS-Tween) for overnight at 4° C. Next, the membrane was washed (3×10 min in TBS-Tween) and incubated with the secondary HRP-conjugated antibody (anti-mouse antibody; Santa Cruz Biotechnology, Inc., Cat. No. sc-2005; 1:1000 dilution in 5% milk in TBS-Tween) followed by thorough washing in TBS-Tween (3×10 min) and distilled water (1×10 min). Blots were visualized with Pierce™ ECL substrate (ThermoFisher Scientific, Cat No. 32106) and chemiluminescence was monitored with a DIANA III Imaging system or ChemiDoc™ MP Imaging System (BioRad). To analyze the compound effect on the PAH protein amount densitometry analysis was performed using ImageJ Software.
(§10) The effect of compound on PAH protein amount was calculated from triplicates. As for determination of the enzyme activity the background of the not transfected cells (NT) was subtracted from the transfected cells (NCC or compound treated). In the next step delta of the NCC versus compound treated cells was calculated. Residual protein amount greater than 100% represents an increase in the stability of the enzyme with respect to NCC.

[5] = target: T2, wild-type PAH; assay: as above; assay type: cell-based; conditions: COS-7 cells, compound 10 μM (sepiapterin 5 μM), read-out: PAH protein level (immune blot signal) WT PAH Mean
Method: as §6, §7, §8, §9, §10

| Compound | ΔTm1 R261Q PAH [1] [°C] | ΔTm2 R261Q PAH [1] [°C] | ΔTm1 WT PAH [2] [°C] | ΔTm2 WT PAH [2] [°C] | PAH protein level (% of control) at 10 µM ([4]; 48 h) [%] | PAH protein level (% of control) at 10 µM ([5]; 48 h) [%] | also measured |
| --- | --- | --- | --- | --- | --- | --- | --- |
| CCc1cccc2cc(C(O)CNC(C)(C)C)oc12 (centres unmarked) [S-Bufuralol HCl, 2-(tert-butylamino)-1-(7-ethyl-1-benzofuran-2-yl)ethan-1-ol] | 3.73 | 0.92 | 1.05 | 0.24 |  |  |  |
| CN1CCc2cc3c(cc2C1O)OCO3 (centres unmarked) [Hydrastinine HCl, 6-methyl-7,8-dihydro-5H-[1,3]dioxolo[4,5-g]isoquinolin-5-ol] | 2.46 | 0.04 | −0.49 | 6.10 | 141 | 164 | Kd [3]: 2.99 ± 3.2 µM; N (stoichiometry) [3]: 1.310 ± 0.2 sites; ΔG [3]: -31.6 kJ/mol; ΔH [3]: 9.58 ± 2.3 kJ/mol; −TΔS [3]: -41.1 kJ/mol; Kd (in words) ([3]; recombinant PAH): low micromolar range |
| C[C@H](O)[C@H](O)[C@H]1CNc2[nH]c(N)nc(=O)c2N1 [BH4, 6R-L-erythro-5,6,7,8-tetrahydrobiopterin] | 2.54 | 12.17 | 0.20 | 1.88 |  |  | Kd [3]: 40.7 ± 14.1 µM; N (stoichiometry) [3]: 0.936 ± 0.3 sites; ΔG [3]: -25.1 kJ/mol; ΔH [3]: -74.9 ± 33.1 kJ/mol; −TΔS [3]: 49.8 kJ/mol |
| CC(C)[C@H](N)C(=O)OCC(CO)OCn1cnc2c(=O)[nH]c(N)nc21 (stereo partly drawn) [Valganciclovir HCl, [2-[(2-amino-6-oxo-3H-purin-9-yl)methoxy]-3-hydroxypropyl] (2S)-2-amino-3-methylbutanoate] |  |  |  |  |  |  | PAH protein level (% of control) at 10 µM ([4]; COS-7, 48 h): 141%; PAH protein level (% of control) at 10 µM ([5]; COS-7, 48 h): 138% |
| CC(C)[C@H](N)C(=O)OCCOCn1cnc2c(=O)[nH]c(N)nc21 [Valacyclovir HCl, 2-[(2-amino-6-oxo-3H-purin-9-yl)methoxy]ethyl (2S)-2-amino-3-methylbutanoate] |  |  |  |  | 104 | 146 |  |
| CCc1cccc2cc(C(O)CNC(C)(C)C)oc12 (centres unmarked) [Bufuralol HCl, 2-(tert-butylamino)-1-(7-ethyl-1-benzofuran-2-yl)ethan-1-ol] | 2.24 |  | 1.62 | −0.09 |  |  |  |
| C=CCn1c(=O)n([C@@H]2O[C@H](CO)C(O)C2O)c2nc(N)[nH]c(=O)c21 (stereo in doubt) [Loxoribine, 2-amino-9-[(2R,3R,4S,5R)-3,4-dihydroxy-5-(hydroxymethyl)oxolan-2-yl]-7-prop-2-enyl-3H-purine-6,8-dione] |  |  | 3.57 |  |  |  |  |
| CCC[S+]([O-])c1ccc2[nH]c(NC(=O)OC)nc2c1 (centres unmarked) [Ricobendazole, methyl [5-(propane-1-sulfinyl)-1H-benzoimidazol-2-yl]-carbamate] | 2.19 | 3.39 | −0.48 | 2.57 | 104 | 154 |  |
| Nc1cc(N2CCCCC2)nc(N)[n+]1[O-] [Minoxidil, 2,6-diamino-4-(piperidin-1-yl)pyrimidine 1-oxide] |  |  |  |  | 96.1 | 127 |  |
